Measurements published in the supplement of paper PMC10307832.

Assays:
Assay in all cases: relative viability (nuclei count vs DMSO), 5 days (fraction); higher = more cells survive
Tosedostat + Lapatinib = compound: CC(C)C[C@@H](C(=O)N[C@H](C(=O)OC1CCCC1)c1ccccc1)[C@H](O)C(=O)NO [Tosedostat] + CS(=O)(=O)CCNCc1ccc(-c2ccc3ncnc(Nc4ccc(OCc5cccc(F)c5)c(Cl)c4)c3c2)o1 [Lapatinib] (partner 2 µM)
Method in brief: (§1)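 Lung cancer cell lines in 1536-well plates got either a single drug or a fixed anchor-drug dose together with five library-drug doses (not always all listed) in √10 steps, by pin tool, on the day after seeding. Nuclei were counted after 5 days, and relative viability is the treated-to-vehicle ratio of nuclei counts. Values are medians of duplicate plates.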

[1] = compound: CC1=NN=C(O1)C2=NN=C(C=C2)N3CCC(CC3)OC4=C(C=CC(=C4)F)Cl + Cc1cc(Nc2cc(N3CCN(C)CC3)nc(Sc3ccc(NC(=O)C4CC4)cc3)n2)n[nH]1 [Tozasertib] (partner 0.1 µM)
Method in brief: as §1

[2] = compound: CC1=NN=C(O1)C2=NN=C(C=C2)N3CCC(CC3)OC4=C(C=CC(=C4)F)Cl + Cc1nc(NC(=O)N2CCC[C@H]2C(N)=O)sc1-c1ccnc(C(C)(C)C(F)(F)F)c1 [Alpelisib] (partner 2 µM)
Method in brief: as §1

[3] = compound: CC1=NN=C(O1)C2=NN=C(C=C2)N3CCC(CC3)OC4=C(C=CC(=C4)F)Cl + O=C(c1cc(Cc2n[nH]c(=O)c3ccccc23)ccc1F)N1CCN(C(=O)C2CC2)CC1 [Olaparib] (partner 8 µM)
Method in brief: as §1

| Cell Line | relative viability (Tosedostat + Lapatinib; first compound 0.02 µM) | relative viability (Tosedostat + Lapatinib; first compound 0.06325 µM) | relative viability (Tosedostat + Lapatinib; first compound 0.2 µM) | relative viability (Tosedostat + Lapatinib; first compound 0.6325 µM) | relative viability (Tosedostat + Lapatinib; first compound 2 µM) | relative viability ([1]; first compound 0.253 µM) | relative viability ([1]; first compound 0.8 µM) | relative viability ([1]; first compound 2.53 µM) | relative viability ([1]; first compound 8 µM) | relative viability ([2]; first compound 0.253 µM) | relative viability ([2]; first compound 0.8 µM) | relative viability ([2]; first compound 2.53 µM) | relative viability ([2]; first compound 8 µM) | relative viability ([3]; first compound 0.253 µM) | relative viability ([3]; first compound 0.8 µM) | relative viability ([3]; first compound 2.53 µM) | relative viability ([3]; first compound 8 µM) |
| --- | --- | --- | --- | --- | --- | --- | --- | --- | --- | --- | --- | --- | --- | --- | --- | --- | --- |
| HCC-15 | 0.949 | 0.882 | 0.748 | 0.746 | 0.708 | 0.281 | 0.29 | 0.274 | 0.278 | 0.661 | 0.578 | 0.582 | 0.584 | 0.354 | 0.305 | 0.348 | 0.337 |
| HCC-44 | 1.04 | 0.994 | 0.94 | 0.937 | 0.678 | 0.545 | 0.564 | 0.513 | 0.487 | 0.491 | 0.573 | 0.56 | 0.474 | 0.295 | 0.358 | 0.346 | 0.363 |
| HCC-78 | 0.647 | 0.764 | 0.684 | 0.841 | 0.746 | 0.376 | 0.319 | 0.266 | 0.288 | 0.318 | 0.309 | 0.308 | 0.321 | 0.454 | 0.384 | 0.387 | 0.456 |
| HCC-366 | 1.12 | 0.954 | 1 | 0.993 | 0.997 | 0.076 | 0.0654 | 0.0544 | 0.0419 | 0.205 | 0.212 | 0.284 | 0.323 | 0.117 | 0.139 | 0.258 | 0.157 |
